The values that follow come from ChEMBL document CHEMBL1201862, “PubChem BioAssay data set” (2004).

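96-well plates; 48 h exposure; 5 concentrations. Endpoints by linear interpolation between flanking doses. Not reached: highest tested concentration assigned. GI50 marks 50% less growth.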 Activity calls are given as the source filed them. Cut-off read from the data, not from the text of the source: active = GI50 up to about 1.1 µM and inactive = higher. Non-standard residues stand in square brackets, D forms with d. Residues, ends and D or L forms follow the SMILES beside them.

Holding throughout (assay): DTP human tumour cell line panel, 48 h
The test system of experiment [1] is ACHN.
Experiment [2] concerns T47D.
Experiment [3] has as its system UO-31.
Experiment [4] deals with NCI-H226.
The test system of experiment [5] is HCC 2998.
The subject of experiment [6] is MDA-MB-231.
Experiment [7] deals with EKVX.
For experiment [8], the system named is PC-3.
Experiment [9] relates to HOP-62.
The test system of experiment [10] is SR.
Experiment [11] has as its system TK-10.
The subject of experiment [12] is MDA-MB-435.
Experiment [13] concerns SK-MEL-28.
The subject of experiment [14] is DMS-273.
Experiment [15] has as its system SNB-78.
The subject of experiment [16] is HOP-18.
For experiment [17], the system named is DLD-1.
The test system of experiment [18] is KM-20L2.
Experiment [19] has as its system XF498.
Experiment [20] relates to M19-MEL.

As a reminder, the GI50 is the concentration at which growth is held to half of that of the control.

On to `c1csc(C(NC2=NCCO2)C2CC2)c1` (stereo unspecified), for which the GI50 in experiment [1], in experiment [2], in [3], in experiment [4], in experiment [5] and in experiment [6] was > 100 µM (inactive) in each case. Moreover, the GI50 in experiment [7], in experiment [8], in experiment [9] and in experiment [10] was > 100 µM (inactive) throughout.

As to `COc1ccc(N2C(=O)/C(=C\c3ccccc3)SC2c2cc(OC)c(OC)c(OC)c2)cc1` (stereo unspecified), the GI50 in experiment [11] was > 100 µM (inactive); in experiment [1] it was 60.3 µM (inactive); in [2], 20.1 µM (inactive); in experiment [3], 50.4 µM (inactive); in [4], > 100 µM (inactive); in experiment [5], > 100 µM (inactive). Further, the GI50 in experiment [12] was 20 µM (inactive); in experiment [13] it was > 100 µM (inactive); in experiment [6], 88.5 µM (inactive); in experiment [7], 15 µM (inactive); in experiment [8] it was 39.2 µM (inactive); in experiment [9], 65.8 µM (inactive). Besides, in experiment [10], the GI50 was 29.9 µM (inactive).

For the molecule `CN(C)CCNc1c2ccccc2c2c3c(cccc13)C(=O)N(CCN(C)C)C2=O`, the GI50 in experiment [14] was 0.122 µM (active); in experiment [15], 0.151 µM (active); in experiment [3], 1.61 µM (inactive); in experiment [4] it was 1.82 µM (inactive); in experiment [16], 0.188 µM (active); in experiment [5], 0.152 µM (active). Further, the GI50 was 0.0578 µM (active) in [17]; 0.103 µM (active) in [18]; 0.0735 µM (active) in experiment [13]; 0.267 µM (active) in experiment [19]; 0.332 µM (active) in [7]; 1.67 µM (inactive) in [9].

Turning to `COc1cc2c3c(c4cc(OC)c(OC)cc4c2cc1OC)C(=O)C1CCC(=O)N1C3` (stereo unspecified), the GI50 in experiment [11] is 12.8 µM (inactive); in experiment [1], 5.86 µM (inactive); in [2] it was 8.71 µM (inactive); in experiment [5], 21.7 µM (inactive); in [12], 21.9 µM (inactive); in experiment [13], 19.8 µM (inactive). Besides, the GI50 in experiment [6] was 55.5 µM (inactive); in [8] it was 25.6 µM (inactive); in [9], 13.6 µM (inactive).

For the molecule `CC1NC(=O)CC(c2ccccc2)N(N=O)C1c1ccccc1` (stereo unspecified), the GI50 in [14] is 26 µM (inactive); in experiment [15], 35.4 µM (inactive); in experiment [3], 50.8 µM (inactive); in experiment [4], 58.5 µM (inactive); in experiment [16], 52.2 µM (inactive); in experiment [5], 35.4 µM (inactive). The GI50 in experiment [17] is 44.8 µM (inactive); in experiment [18], 21.4 µM (inactive); in experiment [13], 40.8 µM (inactive); in [19], 25.8 µM (inactive); in experiment [20], 55.7 µM (inactive); in [7], > 70.6 µM (inactive). Moreover, the GI50 in experiment [9] is 28.8 µM (inactive).

On to `COc1ccc(/C=N/n2cnc3c(c2=O)S/C(=C2/SC(=S)N(c4ccc(C)cc4)C2=O)N3c2ccccc2)cc1`, for which the GI50 was 38.9 µM (inactive) in experiment [14]; > 100 µM (inactive) in experiment [11]; 49.1 µM (inactive) in [1]; > 100 µM (inactive) in experiment [3]; > 100 µM (inactive) in experiment [4]; > 100 µM (inactive) in [5]. Moreover, the GI50 in [18] is > 100 µM (inactive); in [13] it was > 100 µM (inactive); in experiment [20], > 100 µM (inactive); in experiment [7], > 100 µM (inactive); in experiment [9], 22.8 µM (inactive); in experiment [10], 31.6 µM (inactive).

Take `Oc1ccc(-c2nc3ccc(Br)cc3s2)cc1`: the GI50 in [11] was 17.3 µM (inactive); in experiment [1], 22.2 µM (inactive); in experiment [3], 14.5 µM (inactive); in [4] it was 16.3 µM (inactive); in experiment [12] it was 21.1 µM (inactive); in [6] it was 16.3 µM (inactive). Also, the values for the GI50 in experiment [7], in [8] and in experiment [10] were 13 µM (inactive), 19.2 µM (inactive) and 10.3 µM (inactive), respectively.

Regarding `CC(C)C[C@H](NC(=O)[C@H](CC(C)C)NC(=O)[C@@H](Cc1c[nH]c2ccccc12)NC(=O)[C@H](Cc1ccccc1)NC(=O)[C@@H](Cc1c[nH]c2ccccc12)NC(=O)[C@H](CCC(N)=O)NC(=O)[C@H](CCC(N)=O)NC(=O)[C@H]1CCCN1C(=O)[C@@H](N)CCCCN)C(N)=O` (H-K[dP]QQ[dW]F[dW]LL-NH2), the GI50 in experiment [14], in experiment [15], in experiment [3], in [4], in experiment [16] and in [5] was > 100 µM (inactive) each time. Besides, the GI50 in experiment [17], in experiment [18], in experiment [13], in experiment [19], in experiment [20] and in [7] was > 100 µM (inactive) throughout. The GI50 in experiment [9] is > 100 µM (inactive).
